From ChEMBL document CHEMBL1201862, “PubChem BioAssay data set” (2004)
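96-well plates; 48 h exposure; 5 concentrations. Endpoints by linear interpolation between flanking doses. Not reached: highest tested concentration assigned. At the GI50, growth is halved.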 Active and inactive are the calls of the source. No stated cut-off is given here; in the data, active = GI50 up to about 1.1 µM and inactive = higher.

Assays:
Experiment in all cases: inhibition of tumour cell growth, NCI panel, 48 h
[1] = test system: LOX IMVI
[2] = test system: UACC-62
[3] = test system: CAKI-1
[4] = test system: SF-268
[5] = test system: Malme-3M
[6] = test system: SK-MEL-2
[7] = test system: EKVX
[8] = test system: RXF 393
[9] = test system: U-251
[10] = test system: SK-MEL-5
[11] = test system: UO-31
[12] = test system: A498
[13] = test system: HCT-15
[14] = test system: OVCAR-4
[15] = test system: SR
[16] = test system: RPMI-8226
[17] = test system: COLO 205
[18] = test system: MCF7
[19] = test system: MDA-MB-231

SMILES: O=C1C2C=CC(n3[nH]c(=O)n(Cc4ccccc4)c3=O)CC2C(=O)N1c1ccc(Br)cc1 (stereo unspecified)
- GI50 [1]: > 100 µM (inactive)
- GI50 [2]: > 100 µM (inactive)
- GI50 [3]: > 100 µM (inactive)
- GI50 [4]: > 100 µM (inactive)
- GI50 [5]: > 100 µM (inactive)
- GI50 [6]: > 100 µM (inactive)
- GI50 [7]: > 100 µM (inactive)
- GI50 [8]: > 100 µM (inactive)
- GI50 [9]: > 100 µM (inactive)
- GI50 [10]: > 100 µM (inactive)
- GI50 [11]: > 100 µM (inactive)
- GI50 [12]: 56.8 µM (inactive)
- GI50 [13]: > 100 µM
- GI50 [14]: > 100 µM (inactive)
- GI50 [15]: > 100 µM (inactive)
- GI50 [16]: > 100 µM (inactive)
- GI50 [17]: > 100 µM (inactive)

SMILES: O=c1[nH]c(=O)n(C2OC(CO)C(O)C2O)cc1OCC(F)(F)F (stereo unspecified)
- GI50 [1]: > 100 µM (inactive)
- GI50 [2]: > 100 µM (inactive)
- GI50 [3]: > 100 µM (inactive)
- GI50 [4]: > 100 µM (inactive)
- GI50 [5]: > 100 µM (inactive)
- GI50 [6]: > 100 µM (inactive)
- GI50 [7]: > 100 µM (inactive)
- GI50 [8]: > 100 µM (inactive)
- GI50 [9]: > 100 µM (inactive)
- GI50 [10]: > 100 µM (inactive)
- GI50 [11]: > 100 µM (inactive)
- GI50 [12]: > 100 µM (inactive)
- GI50 [13]: > 100 µM
- GI50 [14]: > 100 µM (inactive)
- GI50 [15]: > 100 µM (inactive)
- GI50 [16]: > 100 µM (inactive)
- GI50 [17]: > 100 µM (inactive)

SMILES: CC(C)OCN/C(N)=N\C#N
- GI50 [1]: 20.5 µM (inactive)
- GI50 [2]: > 100 µM (inactive)
- GI50 [3]: > 100 µM (inactive)
- GI50 [4]: > 100 µM (inactive)
- GI50 [5]: > 100 µM (inactive)
- GI50 [6]: > 100 µM (inactive)
- GI50 [7]: > 100 µM (inactive)
- GI50 [8]: 46.1 µM (inactive)
- GI50 [9]: > 100 µM (inactive)
- GI50 [10]: > 100 µM (inactive)
- GI50 [11]: > 100 µM (inactive)
- GI50 [12]: > 100 µM (inactive)
- GI50 [13]: 17.5 µM
- GI50 [14]: > 100 µM (inactive)
- GI50 [15]: 10.8 µM (inactive)
- GI50 [16]: 24 µM (inactive)
- GI50 [17]: 29.1 µM (inactive)

SMILES: CCC(C)(C)C1CCC2c3c([nH]c4ccccc34)C3C(=O)N(c4ccc(OC)cc4)C(=O)C3C2C1 (stereo unspecified)
- GI50 [1]: 6.81 µM (inactive)
- GI50 [2]: 54.7 µM (inactive)
- GI50 [3]: 10.4 µM (inactive)
- GI50 [4]: 15 µM (inactive)
- GI50 [5]: 19.4 µM (inactive)
- GI50 [6]: 16.7 µM (inactive)
- GI50 [7]: 35.4 µM (inactive)
- GI50 [8]: 20.4 µM (inactive)
- GI50 [9]: 11.5 µM (inactive)
- GI50 [11]: 24.4 µM (inactive)
- GI50 [13]: 27.5 µM
- GI50 [14]: 16.7 µM (inactive)
- GI50 [18]: 3.94 µM (inactive)
- GI50 [15]: 39.8 µM (inactive)
- GI50 [19]: 13 µM (inactive)
- GI50 [17]: 10.3 µM (inactive)

SMILES: COC(=O)/C=C/c1c(CC=C(C)C)ncn1C
- GI50 [1]: 35.7 µM (inactive)
- GI50 [2]: 16.6 µM (inactive)
- GI50 [3]: > 68.1 µM (inactive)
- GI50 [4]: > 66.7 µM (inactive)
- GI50 [5]: > 100 µM (inactive)
- GI50 [6]: 19.6 µM (inactive)
- GI50 [7]: > 57.1 µM (inactive)
- GI50 [8]: 22.5 µM (inactive)
- GI50 [9]: 19.1 µM (inactive)
- GI50 [10]: 22.1 µM (inactive)
- GI50 [11]: 28.2 µM (inactive)
- GI50 [12]: > 84.1 µM (inactive)
- GI50 [13]: 7.85 µM
- GI50 [14]: 84.9 µM (inactive)
- GI50 [15]: 4.29 µM (inactive)
- GI50 [16]: 20.6 µM (inactive)
- GI50 [17]: 20.9 µM (inactive)

SMILES: CCOc1ncn(-c2ccc(NC(=S)NC34CC5CC(CC(C5)C3)C4)cc2)n1
- GI50 [1]: > 100 µM (inactive)
- GI50 [2]: 38 µM (inactive)
- GI50 [4]: > 100 µM (inactive)
- GI50 [7]: > 100 µM (inactive)
- GI50 [9]: > 10 µM (inactive)
- GI50 [10]: 58.5 µM (inactive)
- GI50 [11]: > 100 µM (inactive)
- GI50 [13]: > 100 µM
- GI50 [14]: 22.3 µM (inactive)
- GI50 [18]: > 100 µM (inactive)
- GI50 [15]: > 100 µM (inactive)
- GI50 [16]: > 100 µM (inactive)
- GI50 [19]: 76.4 µM (inactive)
- GI50 [17]: > 100 µM (inactive)

SMILES: COc1cc(OC)c(/C=N\Nc2nc3ccccc3c(=O)n2-c2ccccc2)c(OC)c1
- GI50 [1]: 23.2 µM (inactive)
- GI50 [2]: 19.5 µM (inactive)
- GI50 [3]: 16 µM (inactive)
- GI50 [4]: 34.9 µM (inactive)
- GI50 [5]: 28.1 µM (inactive)
- GI50 [6]: 25.4 µM (inactive)
- GI50 [7]: 26.9 µM (inactive)
- GI50 [8]: 23.7 µM (inactive)
- GI50 [9]: 32.1 µM (inactive)
- GI50 [10]: 26.2 µM (inactive)
- GI50 [11]: > 48.8 µM (inactive)
- GI50 [12]: 11.8 µM (inactive)
- GI50 [13]: 37.4 µM
- GI50 [14]: 28.8 µM (inactive)
- GI50 [18]: > 47.1 µM (inactive)
- GI50 [15]: 36.6 µM (inactive)
- GI50 [16]: 26.4 µM (inactive)
- GI50 [19]: 23.8 µM (inactive)
- GI50 [17]: 45.3 µM (inactive)

SMILES: C[C@]12CC[C@@H]3c4ccc(O)cc4CC[C@H]3[C@@H]1CC[C@@H]2OC(=O)CCC1CCCC1 [ESTRADIOL CYPIONATE]
- GI50 [1]: 18 µM (inactive)
- GI50 [2]: 14.4 µM (inactive)
- GI50 [3]: 19.1 µM (inactive)
- GI50 [4]: 21.8 µM (inactive)
- GI50 [5]: 26.9 µM (inactive)
- GI50 [6]: 23.2 µM (inactive)
- GI50 [7]: 7.45 µM (inactive)
- GI50 [8]: 10.4 µM (inactive)
- GI50 [9]: 18.7 µM (inactive)
- GI50 [10]: 17.5 µM (inactive)
- GI50 [11]: 18.4 µM (inactive)
- GI50 [12]: 20.3 µM (inactive)
- GI50 [13]: 16.2 µM
- GI50 [14]: 17.5 µM (inactive)
- GI50 [18]: 17.1 µM (inactive)
- GI50 [15]: 17.8 µM (inactive)
- GI50 [16]: 18.5 µM (inactive)
- GI50 [19]: 17.5 µM (inactive)
- GI50 [17]: 19.1 µM (inactive)
